Ends that are not written are not given here.
Columns and labels:
adult rat brain = assay: Binding of radiolabelled rat β-amyloid peptide to rat brain
AD plaques = assay: Deposition of ^125 I-labelled β-amyloid peptides onto plaques in AD brain tissue (homogenate binding, autoradiography); parameters: species or system human
Description: Fragments labelled in accordance with the method described herein can be combined with amyloid plaque derived from Alzheimer's disease tissue or other amyloid substance such as silk, and tested for activity, for example, their ability to deposit on these materials.
Brain tissue was obtained form normal and Alzheimer's disease patients at 0.5 to 14 hours postmortem, frozen on dry ice after collection, and stored at -20° C. until use. For filter binding studies, tissue homogenates were prepared after the method of H. P. Too and M. R. Hanley, Biochem. J. 252:545 (1988), the disclosure of which is incorporated by reference herein. Tissue was homogenized (Polytron, setting 7-8, 5-10 sec) in 5-10 volumes of 50 mM Tricine (pH 7.5) containing 10% sucrose and protease inhibitors (0.01% bacitracin, 0.002% soybean trypsin inhibitor, 0.0002% chicken egg trypsin inhibitor, 1 mM benzamidine hydrochloride) and pelleted at 10,000 g for 20 minutes. The homogenate was then resuspended and washed several times in Tricine buffer containing 120 mM NaCl, 10 mM EDTA, 300 mM KCl and centrifuged at 40,000 g for 20 minutes and stored at -20° C. for less than two months. Membranes (equivalent to about 30 mg tissue) were resuspended in 0.5 ml 50 mM TrisHCl (pH 7.5) containing 1 mg/ml bovine serum albumin (BSA), 10 mM MnCl2, 0.004% bacitracin, 0.002% chymostatin, 0.004% leupeptin, 0.1% dimethylsulfoxide for 30 minutes prior to addition of the radioligand (10^-11 to 10^-9 M) and various concentrations of unlabelled peptides in the same buffer.
After incubating for two hours at room temperature, the homogenates (final volume 0.575 ml) were filtered through glass fiber filters (Whatman GF/D), presoaked for at least two hours in 1 mg/ml BSA and rinsed with 25 mM Tricine (pH 7.5). After washing twice with 25 mM TrisHCl (pH 7.5) at room temperature, the filters were counted in a gamma counter.
For tissue autoradiography, unfixed tissue was serially sectioned at 5-15 μm and thaw-mounted onto gelatin-coated slices. Slide-mounted sections were stored at -20° C. in closed boxes over desiccant for less than three months before use. Sections were preincubated for 30 minutes and incubated with the radioligand for two hours under the same conditions according to the aforedescribed homogenate binding study. Alternatively, 50 mM TrisHCl rather than Tricine may be used as the buffer. For estimating nonspecific binding, paired serial sections were incubated with the radioligand in the presence of a 10^4 to 10^5 fold excess of the unlabelled peptide. Following incubation with the radioligand, the slides were washed with 50 mM TrisHCl pH 7.5 (four times, two minutes each at 4° C.), then dried at 4° C. and stored in closed boxes over desiccant at room temperature overnight. The fully dried slides were then placed in apposition to tritium-sensitive film alongside iodinated standards. After one week's exposure at -20° C., the film was developed, fixed and washed. […] This approach generated film autoradiograms for quantitative densitometry,a high resolution emulsion autoradiograms for detailed histology, and a counterstained section for identification of cell types from each tissue section.
Briefly peptides were purchased or synthesized by fluorenemethoxycarbonyl chemistry on polystyrene resins, using acid-labile blocking groups for sidechain protection, cleaved with trifluoroacetic acid, and purified by RP-HPLC. […] Autoradiograms were quantitated by densitometry. […] To study the peptide fragments in water we developed a novel approach, measuring NMR data at 750 MHz using a prototype 10 mm ^1 H pulsed field gradient probe. Modified two-dimensional homonuclear TOCSY and NOESY experiments were measured at several pH values and structural information was derived using standard methods.

ceilan katia yarn (silk) = assay: Deposition of radiolabelled β-amyloid peptides onto silk; assay type: binding, Bombyx silkworm; conditions: in the presence of Triton X-100 (FIG. 5)
Description: Peptide deposition was conducted and detected as described in Example 2, except that instead of using brain tissue obtained from patients with Alzheimer's disease, silk was used as a template for β-amyloid deposition. The silk specimens were wound about or placed on a glass microscope slide and treated exactly as a piece of Alzheimer's disease (AD) brain tissue was treated in Example 2, using the same solutions, incubations times, etc. Experiments involving AD brain sections and control fabrics, such as nylon and cotton, were conducted in parallel.
Although screens of the many available silks were done at pH 8.5, later experiments were conducted at a preferably lower pH. Silk deposition experiments were done in 96-well plates. Labelled β-amyloid peptide concentration ranged from 20-100 pM, and the amount of silk used per assay ranged 0.5 to 5 mg.

[1] = target: amyloid plaques in Alzheimer's disease brain tissue (homogenates and thin sections); assay: deposition of labelled fragment
silk = assay: deposition of radiolabelled peptide onto ceilan katia yarn with Triton X-100

Radiolabelled rat β-amyloid peptide^1-40: radiolabelled rat β-amyloid peptide 1-40 (DAEFGHDSGFEVRHQKLVFFAEDVGSNKGAIIGLMVGGVV; also: radiolabelled, label site not given here; UniProt P08592 672-711, looked up)
binding to adult rat brain (adult rat brain): failed to bind
binding to Alzheimer's disease or normal human tissue (AD plaques): failed to bind

βA(1-40)-NH2: derivatized 40-mer, with a carboxyamide at the C-terminus
deposition of radiolabelled peptide onto ceilan katia yarn (silk) (ceilan katia yarn (silk)): active
deposition activity of fragment (active / not active) (AD plaques; labelled fragment combined with AD amyloid plaque or silk, relative to βA(1-40)-OH): active

B1: βA(26-42)-NH2 (peptide)
peptide: SNKGAIIGLMVGGVVIA-NH2
modifications: also: 125I-labelled after acylation with 4-hydroxyphenylpropionic acid, site not given here
fold activity relative to β-amyloid peptide [1]: 3 fold
fold activity relative to βA(1-40)-OH and βA(1-40)-NH2 (silk): 3 times

From patent publication US5721106A, “In Vitro method for screening β-amyloid deposition” (Regents of the University of Minnesota, priority 1994, dated 1998)
